Results published in patent US20250051327A1, “MALT-1 MODULATORS” (EXSCIENTIA AI LIMITED, priority 2020, published 2025).
pIC50: −log10 of the molar value. Where two headings read alike, the source gives them in different places.

Columns and labels:
[1] = target: Recombinant human MALT-1 (amino acids 340-824) (Homo sapiens (Human), UniProt Q9UDY8); experiment: MALT-1 inhibition assay (fluorogenic substrate Ac-LRSR-Rh110-DP); format: biochemical; conditions: recombinant human MALT-1, substrate Ac-LRSR-Rh110-DP
In short: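 MALT-1 at 3 nM final was reacted with 10 μM Ac-LRSR-Rh110-DP, with substrate addition starting the reaction. Incubation ran 60 minutes at 25° C in the dark. Percent inhibition from fluorescence across doses was fitted to a 4-parameter logistic to give IC50.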

[2] = test system: IL-2 secretion by human effector memory T cells (TEM); experiment: Effector memory T cells IL-2 release assay; format: cell-based; conditions: human CD4+ effector memory T cells, CD3/CD28 bead stimulation, 24 h, read-out: CD4TC IL2 IC50
In short: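 Human CD4+ effector memory T cells from healthy-donor buffy coats were stimulated with anti-CD3/CD28 Dynabeads and exposed to 10 semi-log compound doses (0.1% DMSO) for 24 h at 37 °C. Supernatant IL-2 was measured by HTRF, and IC50 came from a 4-parameter logistic fit to maximal IL-2. Viability was checked by flow cytometry.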

Sequence of Recombinant human MALT-1 (amino acids 340-824) (Q9UDY8 340-824): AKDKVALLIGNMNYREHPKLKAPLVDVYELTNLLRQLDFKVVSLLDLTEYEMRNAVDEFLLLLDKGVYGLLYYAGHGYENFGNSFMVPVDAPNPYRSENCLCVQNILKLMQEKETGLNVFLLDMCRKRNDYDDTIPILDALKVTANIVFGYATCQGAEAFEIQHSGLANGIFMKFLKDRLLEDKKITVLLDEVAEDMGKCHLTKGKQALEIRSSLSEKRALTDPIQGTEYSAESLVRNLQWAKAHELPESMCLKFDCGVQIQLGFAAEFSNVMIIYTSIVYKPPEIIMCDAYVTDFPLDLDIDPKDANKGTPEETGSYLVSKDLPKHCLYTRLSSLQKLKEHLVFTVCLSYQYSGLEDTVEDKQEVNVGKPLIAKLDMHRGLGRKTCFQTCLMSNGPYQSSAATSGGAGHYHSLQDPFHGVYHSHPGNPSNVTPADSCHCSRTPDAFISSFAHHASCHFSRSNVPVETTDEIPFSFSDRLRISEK

pIC50 [1] | pIC50 ([2]; T-cell) | Structure (SMILES) | pIC50 [2]
7.05 | 6.84 | CN(C(=O)C1COC1)[C@@H](c1ccc(N2CCCc3c2cnc2cc(Cl)nn32)cc1)C(F)(F)F [CPD0073083, N-[(1S)-1-(4-{4-chloro-2,3,7,10-tetraazatricyclo[7.4.0.0^2,6]trideca-1(9),3,5,7-tetraen-10-yl}phenyl)-2,2,2-trifluoroethyl]-N-methyloxetane-3-carboxamide] | –
6.93 | 6.68 | COc1ccc2ncc(Nc3ccc([C@@H](N(C)C(=O)[C@H]4CC[S@](=N)(=O)CC4)C(F)(F)F)cc3)c([C@H](C)OC)c2n1 (relative stereo) [CPD0077187, (1 rel-s,4rel-s)-1-imino-N-methyl-1-oxo-N-[(1R)-2,2,2-trifluoro-1-[4-({6-methoxy-4-[(1 rel-S)-1-methoxyethyl]-1,5-naphthyridin-3-yl}amino)phenyl]ethyl]-1λ^6-thiane-4-carboxamide] | –
7.21 | 6.77 | C[C@@H]1CCN(c2ccc([C@H](N(C)C(=O)[C@H]3CC[S@@](=N)(=O)CC3)C(F)(F)F)cc2)c2cnc3cc(F)nn3c21 (relative stereo) [CPD0074556, (1rel r, 4rel r)1-imino-N-methyl-1-oxo-N-[(1S)-2,2,2-trifluoro-1-[4-[(13 rel R)-4-fluoro-13-methyl-2,3,7,10-tetrazatricyclo[7.4.0.0^2,6]trideca-1(9),3,5,7-tetraen-10-yl]phenyl]ethyl]thiane-4-carboxamide] | –
7.34 | 7.10 | CC(=O)N1CCC(C(=O)N(C)[C@@H](c2ccc(N3CCCc4c3cnc3cc(Cl)nn43)cc2)C(F)(F)F)CC1 [CPD0073089, 1-acetyl-N-[(1S)-1-(4-{4-chloro-2,3,7,10-tetraazatricyclo[7.4.0.0^2,6]trideca-1(9),3,5,7-tetraen-10-yl}phenyl)-2,2,2-trifluoroethyl]-N-methylpiperidine-4-carboxamide] | –
7.28 | 6.82 | CN(C(=O)[C@@H]1COC(=O)N1C)[C@@H](c1ccc(N2CCCc3c2cnc2cc(Cl)nn32)cc1)C(F)(F)F (relative stereo) [CPD0073571, (4rel-S)-N-[(1S)-1-(4-{4-chloro-2,3,7,10-tetraazatricyclo[7.4.0.0^2,6]trideca-1(9),3,5,7-tetraen-10-yl}phenyl)-2,2,2-trifluoroethyl]-N,3-dimethyl-2-oxo-1,3-oxazolidine-4-carboxamide] | –
7.51 | 7.06 | C[C@H]1CCN(c2ccc([C@H](N(C)C(=O)[C@@H]3CCC(=O)NC3)C(F)(F)F)cc2)c2cnc3cc(Cl)nn3c21 (relative stereo) [CPD0074567, (3rel-R)-N-[(1S)-1-[4-[(13rel-S)-4-chloro-13-methyl-2,3,7,10-tetrazatricyclo[7.4.0.0^2,6]trideca-1(9),3,5,7-tetraen-10-yl]phenyl]-2,2,2-trifluoro-ethyl]-N-methyl-6-oxo-piperidine-3-carboxamide] | –
6.99 | 6.59 | COc1ccc2ncc(Nc3ccc([C@H](N(C)C(=O)[C@H]4CC[S@](=N)(=O)CC4)C(F)(F)F)cc3)c([C@@H](C)OC)c2n1 [CPD0075563] | –
7.12 | 6.80 | CC(=O)N1CC[C@H](C(=O)N(C)[C@@H](c2ccc(N3CCCc4c3cnc3cc(Cl)nn43)cc2)C(F)(F)F)C1 (relative stereo) [CPD0073189, (3rel-S)-1-acetyl-N-[(1S)-1-(4-{4-chloro-2,3,7,10-tetraazatricyclo[7.4.0.0^2,6]trideca-1(9),3,5,7-tetraen-10-yl}phenyl)-2,2,2-trifluoroethyl]-N-methylpyrrolidine-3-carboxamide] | –
7.46 | 6.92 | CN(C(=O)[C@H]1CCC(=O)N1)[C@@H](c1ccc(N2CCCc3c2cnc2cc(Cl)nn32)cc1)C(F)(F)F (relative stereo) [CPD0073567, (2rel-R)-N-[(1S)-1-(4-{4-chloro-2,3,7,10-tetraazatricyclo[7.4.0.0^2,6]trideca-1(9),3,5,7-tetraen-10-yl}phenyl)-2,2,2-trifluoroethyl]-N-methyl-5-oxopyrrolidine-2-carboxamide] | –
7.66 | 7.17 | C[C@@H]1CCN(c2ccc([C@H](N(C)C(=O)[C@H]3CC[S@](=N)(=O)CC3)C(F)(F)F)cc2)c2cnc3cc(Cl)nn3c21 (relative stereo) [CPD0073193, (1rel-r,4rel-r)-N-[(1S)-1-{4-[(13rel-R)-4-chloro-13-methyl-2,3,7,10-tetraazatricyclo[7.4.0.0^2,6]trideca-1(9),3,5,7-tetraen-10-yl]phenyl}-2,2,2-trifluoroethyl]-1-imino-N-methyl-1-oxo-1λ^6-thiane-4-carboxamide] | –
6.71 | 6.11 | CN(C(=O)C1CCS(=O)(=O)CC1)[C@@H](c1ccc(N2CCCc3c2cnc2cc(Cl)nn32)cn1)C(F)(F)F [CPD0073056, N-[(1S)-1-[5-(4-chloro-2,3,7,10-tetrazatricyclo[7.4.0.0^2,6]trideca-1(9),3,5,7-tetraen-10-yl)-2-pyridyl]-2,2,2-trifluoro-ethyl]-N-methyl-1,1-dioxo-thiane-4-carboxamide] | –
7.12 | 6.97 | CN(C(=O)[C@H]1CC[S@@+]([O-])CC1)[C@@H](c1ccc(N2CCC(C)(C)c3c2cnc2cc(F)nn32)cc1)C(F)(F)F (relative stereo) [CPD0072780, (1rel-s,4rel-s)-N-methyl-1-oxo-N-[(1S)-2,2,2-trifluoro-1-(4-{4-fluoro-13,13-dimethyl-2,3,7,10-tetraazatricyclo[7.4.0.0^2,6]trideca-1(9),3,5,7-tetraen-10-yl}phenyl)ethyl]-1λ^4-thiane-4-carboxamide] | –

The remaining lines, values behind:

Structure (SMILES) | pIC50 [1] | pIC50 ([2]; T-cell) | pIC50 [2]
COc1ccc2ncc3c(c2n1)CCCN3c1ccc([C@H](N(C)C(=O)C2CCS(=O)(=O)CC2)C(F)(F)F)cc1 [CPD0072532, N-methyl-1,1-dioxo-N-[(1S)-2,2,2-trifluoro-1-[4-(2-methoxy-9,10-dihydro-8H-pyrido[2,3-f][1,7]naphthyridin-7-yl)phenyl]ethyl]thiane-4-carboxamide] | 6.66 | 6.26 | –
CN(C(=O)[C@@H]1CCS(=O)(=O)C1)[C@@H](c1ccc(N2CCCc3c2cnc2cc(Cl)nn32)cc1)C(F)(F)F (relative stereo) [CPD0022135, (3rel-S)-N-[(1S)-1-(4-{4-chloro-2,3,7,10-tetraazatricyclo[7.4.0.0^2,6]trideca-1(9),3,5,7-tetraen-10-yl}phenyl)-2,2,2-trifluoroethyl]-N-methyl-1,1-dioxo-1λ^6-thiolane-3-carboxamide] | 7.08 | 7.02 | –
Cc1nn(C)cc1C(=O)N(C)[C@@H](c1ccc(N2CCCc3c2cnc2cc(Cl)nn32)cc1)C(F)(F)F [CPD0019347, N-[(1S)-1-(4-{4-chloro-2,3,7,10-tetraazatricyclo[7.4.0.0^2,6]trideca-1(9),3,5,7-tetraen-10-yl}phenyl)-2,2,2-trifluoroethyl]-N,1,3-trimethyl-1H-pyrazole-4-carboxamide] | 6.61 | 6.88 | –
CCC(O)C(=O)N(C)[C@@H](c1ccc(N2CCCc3c2cnc2cc(Cl)nn32)cc1)C(F)(F)F (stereo partly drawn) [CPD0021576, N-[(1S)-1-(4-{4-chloro-2,3,7,10-tetraazatricyclo[7.4.0.0^2,6]trideca-1(9),3,5,7-tetraen-10-yl}phenyl)-2,2,2-trifluoroethyl]-2-hydroxy-N-methylbutanamide] | 6.84 | 6.48 | –
CC1CCc2c(cnc3cc(Cl)nn23)N1c1ccc([C@H](N(C)C(=O)C2CCS(=O)(=O)CC2)C(F)(F)F)cc1 (stereo partly drawn) [CPD0072806, N-[(1S)-1-{4-[(11rel-R)-4-chloro-11-methyl-2,3,7,10-tetraazatricyclo[7.4.0.0^2,6]trideca-1(9),3,5,7-tetraen-10-yl]phenyl}-2,2,2-trifluoroethyl]-N-methyl-1,1-dioxo-1λ^6-thiane-4-carboxamide] | 7.16 | – | 6.69
CN(C(=O)[C@H]1CC[S@@](=N)(=O)CC1)[C@@H](c1ccc(N2CCC3(CC3)c3c2cnc2cc(Cl)nn32)cc1)C(F)(F)F [CPD0072772, (1rel-s,4rel-s)-N-[(1S)-1-(4-{4′-chloro-2′,3′,7′, 10′-tetraazaspiro[cyclopropane-1,13′-tricyclo[7.4.0.0^2,6]tridecane]-1′(9′),3′,5′,7′-tetraen-10′-yl}phenyl)-2,2,2-trifluoroethyl]-1-imino-N-methyl-1-oxo-1λ^6-thiane-4-carboxamide] | 7.57 | 7.57 | –
Cc1ncc(C(=O)N(C)[C@@H](c2ccc(N3CCCc4c3cnc3cc(Cl)nn43)cc2)C(F)(F)F)n1C [CPD0019346, N-[(1S)-1-(4-{4-chloro-2,3,7,10-tetraazatricyclo[7.4.0.0^2,6]trideca-1(9),3,5,7-tetraen-10-yl}phenyl)-2,2,2-trifluoroethyl]-N,1,2-trimethyl-1H-imidazole-5-carboxamide] | 6.27 | 6.14 | –
CN(C(=O)CO)[C@@H](c1ccc(N2CCCc3c2cnc2cc(Cl)nn32)cc1)C(F)(F)F [CPD0019341, N-[(1S)-1-[4-(4-chloro-2,3,7,10-tetrazatricyclo[7.4.0.0^2,6]trideca-1(9),3,5,7-tetraen-10-yl)phenyl]-2,2,2-trifluoro-ethyl]-2-hydroxy-N-methyl-acetamide] | 6.70 | 6.98 | –
CN(C(=O)C1CCS(=N)(=O)CC1)[C@@H](c1ccc(N2CCCc3c2cnc2cc(Cl)nn32)cc1)C(F)(F)F (stereo partly drawn) [CPD0021810] | 7.20 | 6.71 | –
